Test results published in ChEMBL document CHEMBL1201862, “PubChem BioAssay data set” (2004).
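Growth conditions: 96-well plates. Treatment: test compound, 48 hours, 5 concentrations. Analysis: linear interpolation between bracketing concentrations; unreached endpoints set to highest concentration. GI50 marks 50% less growth.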 Active and inactive are the calls of the source. No stated cut-off is given here; in the data, active = GI50 up to about 1.1 µM and inactive = higher.

Key:
Experiment in all cases: DTP human tumour cell line panel, 48 h
U-251 = tested on: U-251
NCI-H460 = tested on: NCI-H460
HOP-62 = tested on: HOP-62
IGROV-1 = tested on: IGROV-1
UACC-257 = tested on: UACC-257
SF-268 = tested on: SF-268
EKVX = tested on: EKVX
UO-31 = tested on: UO-31
MOLT-4 = tested on: MOLT-4
SK-OV-3 = tested on: SK-OV-3
COLO 205 = tested on: COLO 205
SK-MEL-5 = tested on: SK-MEL-5
RPMI-8226 = tested on: RPMI-8226
ACHN = tested on: ACHN
A549 = tested on: A549
OVCAR-5 = tested on: OVCAR-5
KM12 = tested on: KM12
NCI-H522 = tested on: NCI-H522

Measured: GI50

CC(=O)OCCOCn1c2ccccc2c2c3c(c4c5ccccc5n(COCCOC(C)=O)c4c21)C(=O)N(Cc1ccccc1)C3=O
inactive: U-251 > 100 µM | NCI-H460 > 100 µM | HOP-62 > 100 µM | IGROV-1 > 100 µM | UACC-257 > 100 µM | SF-268 > 100 µM | EKVX > 100 µM | UO-31 > 100 µM | MOLT-4 > 100 µM | SK-OV-3 > 100 µM | COLO 205 > 100 µM | SK-MEL-5 > 100 µM | RPMI-8226 > 100 µM | ACHN > 100 µM | A549 > 100 µM | OVCAR-5 > 100 µM

O=C1CCCC2=C1CC1=C(CCCC1=O)N2c1ccc([N+](=O)[O-])cc1
inactive: U-251 > 100 µM | NCI-H460 > 100 µM | IGROV-1 > 100 µM | SF-268 > 100 µM | EKVX > 100 µM | UO-31 > 100 µM | MOLT-4 > 100 µM | SK-OV-3 > 100 µM | KM12 > 100 µM | SK-MEL-5 > 100 µM | RPMI-8226 > 100 µM | ACHN > 100 µM | A549 > 100 µM | OVCAR-5 > 100 µM

Cc1ccc(SSCCCCS(=O)O)cc1
inactive: U-251 10.6 µM | NCI-H460 32.5 µM | HOP-62 28.7 µM | IGROV-1 2.91 µM | UACC-257 18.5 µM | SF-268 10 µM | EKVX 18.5 µM | UO-31 10.6 µM | MOLT-4 > 100 µM | SK-OV-3 34.2 µM | KM12 18.2 µM | COLO 205 19.5 µM | SK-MEL-5 11.5 µM | ACHN 19 µM | A549 18.5 µM | NCI-H522 12.5 µM | OVCAR-5 45.4 µM

Cc1cn(C2C=CC(=O)C(C)O2)c(=O)[nH]c1=O (centres undefined)
inactive: U-251 15.3 µM | NCI-H460 17.9 µM | HOP-62 20.6 µM | IGROV-1 18 µM | UACC-257 14 µM | SF-268 18.2 µM | UO-31 14.5 µM | MOLT-4 18 µM | SK-OV-3 33.8 µM | KM12 16.1 µM | COLO 205 17.5 µM | SK-MEL-5 14.7 µM | RPMI-8226 20.5 µM | ACHN 17.5 µM | A549 39 µM | NCI-H522 16.6 µM

[N-]=[N+]=NC1(Cc2ccccc2)C(=O)c2cccc3c2N(CCC3)C1=O (centres undefined)
inactive: U-251 > 100 µM | NCI-H460 > 100 µM | HOP-62 > 100 µM | IGROV-1 > 100 µM | UACC-257 > 100 µM | SF-268 > 100 µM | UO-31 > 100 µM | MOLT-4 > 100 µM | SK-OV-3 40.3 µM | KM12 > 100 µM | COLO 205 > 100 µM | SK-MEL-5 > 100 µM | RPMI-8226 > 100 µM | ACHN > 100 µM | A549 > 100 µM | NCI-H522 > 100 µM | OVCAR-5 > 100 µM

Cn1cccc1/C=C/c1cc(Br)c(/C=C/c2cccn2C)cc1Br
inactive: U-251 13 µM | NCI-H460 17.9 µM | IGROV-1 15.8 µM | UACC-257 30.6 µM | SF-268 20.5 µM | EKVX 11.1 µM | UO-31 15.2 µM | MOLT-4 11.6 µM | SK-OV-3 14.8 µM | KM12 7.23 µM | COLO 205 13.2 µM | SK-MEL-5 15.2 µM | RPMI-8226 15.2 µM | ACHN 10.2 µM | A549 11.9 µM | NCI-H522 14.5 µM | OVCAR-5 16.8 µM

N#CCc1c(-c2ccccc2)n(S(=O)(=O)c2ccccc2)c2ccccc12
inactive: U-251 > 100 µM | NCI-H460 > 100 µM | HOP-62 36.1 µM | IGROV-1 > 100 µM | UACC-257 > 100 µM | SF-268 > 100 µM | UO-31 14.8 µM | MOLT-4 41.3 µM | KM12 > 100 µM | COLO 205 > 100 µM | SK-MEL-5 > 100 µM | RPMI-8226 31.2 µM | ACHN > 100 µM | A549 > 100 µM | NCI-H522 > 10 µM | OVCAR-5 > 100 µM

Cc1cc2c(cc1C)[n+]([O-])c(C(=O)C/C(=N/OCCCc1ccccc1)C(=O)Nc1cc(Cl)ccc1Cl)c(C)[n+]2[O-]
inactive: U-251 > 100 µM | NCI-H460 > 100 µM | HOP-62 > 100 µM | IGROV-1 > 100 µM | UACC-257 > 100 µM | SF-268 > 100 µM | EKVX > 100 µM | MOLT-4 22.9 µM | SK-OV-3 > 100 µM | KM12 > 100 µM | COLO 205 > 100 µM | SK-MEL-5 > 100 µM | ACHN > 100 µM | A549 > 100 µM | NCI-H522 > 100 µM | OVCAR-5 > 100 µM
